Results reported in paper PMC5766233, “Ternary copper(II) complex: NCI60 screening, toxicity studies, and evaluation of efficacy in xenograft models of nasopharyngeal carcinoma” (PLoS ONE, 2018).

What was measured:
Assay in all cases: CYP450 inhibition assay, pooled human liver microsomes
CYP 2C19 = CYP 2C19 (Homo sapiens, UniProt P33261); conditions: read-out: IC50 CYP 2C19; probe S-mephenytoin
Method: (§1) In the CYP inhibition assay, human liver microsomes were incubated with the Cu(II) complex or reference standard. The inhibitory effects of these compounds were investigated against the major CYP isoforms namely 1A2, 2C9, 2C19, 2D6, 2B6, 2C8 and 3A4 with their respective isoform probe substrates in one reaction mixture (pooled probe substrate format using LC-MS/MS).
(§2) Pooled human liver microsomes (Sekisui Xeno Tech, LLC., Kansas City, KS, USA) were incubated with different concentrations of Cu(II) complex or reference standards in buffer containing 0.1% DMSO for 10 min at 37°C and the residual enzyme activity was measured using pooled probe substrates method by pooled LC-MS/MS. Briefly, incubation mixtures were prepared in a total volume of 200 μL with final component concentrations as follows: 0.1 M potassium phosphate buffer (pH 7.4), 1.5 mM NADPH, and 0.25 mg/ml HLM. […] After 20 min of incubation, the reactions were terminated by addition of 200 μL ice-cold acetonitrile (Rankem, Avantor Performance Materials India Limited, Andhra Pradesh, India) containing telmisartan and carbamazepine as internal standards (all probe substrates and standards were from Sigma Aldrich). Each reaction mixture was centrifuged at 3,500 rpm for 5 min and the supernatant was subjected to LC-MS/MS analysis. The percent inhibition was calculated using the following equation: %Inhibition=100‑[(activityintestwells/activityinbasalcontrolwells)×100]

CYP 2C8 = biological target: T1, CYP 2C8 (Homo sapiens, UniProt P10632); conditions: read-out: IC50 CYP 2C8; probe amodiaquine
T1 sequence (P10632 1-490): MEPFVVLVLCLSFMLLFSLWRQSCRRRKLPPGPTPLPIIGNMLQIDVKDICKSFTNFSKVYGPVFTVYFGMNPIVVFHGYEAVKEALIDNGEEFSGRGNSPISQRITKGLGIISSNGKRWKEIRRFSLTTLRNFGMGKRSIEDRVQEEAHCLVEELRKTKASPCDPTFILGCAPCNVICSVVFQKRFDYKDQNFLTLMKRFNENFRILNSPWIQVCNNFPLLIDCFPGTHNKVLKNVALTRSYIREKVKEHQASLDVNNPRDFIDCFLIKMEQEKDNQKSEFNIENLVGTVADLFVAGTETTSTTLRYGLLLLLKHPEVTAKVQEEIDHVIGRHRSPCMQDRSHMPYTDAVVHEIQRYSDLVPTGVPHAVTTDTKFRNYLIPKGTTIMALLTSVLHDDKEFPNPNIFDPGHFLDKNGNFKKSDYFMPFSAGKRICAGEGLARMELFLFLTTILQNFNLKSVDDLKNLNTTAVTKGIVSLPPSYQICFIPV
Method: as §1, §2

CYP 2B6 = biological target: T2, CYP 2B6 (Homo sapiens, UniProt P20813); conditions: read-out: IC50 CYP 2B6; probe bupropion
T2 sequence (P20813 1-491): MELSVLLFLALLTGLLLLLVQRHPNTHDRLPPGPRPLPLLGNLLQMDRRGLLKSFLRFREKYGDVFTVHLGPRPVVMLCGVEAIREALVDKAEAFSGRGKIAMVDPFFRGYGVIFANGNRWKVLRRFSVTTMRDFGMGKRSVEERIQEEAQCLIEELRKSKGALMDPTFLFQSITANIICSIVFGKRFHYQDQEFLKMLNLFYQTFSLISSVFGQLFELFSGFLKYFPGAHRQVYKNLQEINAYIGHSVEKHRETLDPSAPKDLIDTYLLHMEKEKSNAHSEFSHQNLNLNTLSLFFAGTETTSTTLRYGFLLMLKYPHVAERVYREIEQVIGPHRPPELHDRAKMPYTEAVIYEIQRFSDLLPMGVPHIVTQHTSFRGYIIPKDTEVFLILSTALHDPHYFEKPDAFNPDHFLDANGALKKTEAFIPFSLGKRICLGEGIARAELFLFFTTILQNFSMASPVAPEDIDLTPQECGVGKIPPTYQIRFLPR
Method: as §1, §2

Sequence of CYP 2C19 (P33261 whole entry, canonical isoform): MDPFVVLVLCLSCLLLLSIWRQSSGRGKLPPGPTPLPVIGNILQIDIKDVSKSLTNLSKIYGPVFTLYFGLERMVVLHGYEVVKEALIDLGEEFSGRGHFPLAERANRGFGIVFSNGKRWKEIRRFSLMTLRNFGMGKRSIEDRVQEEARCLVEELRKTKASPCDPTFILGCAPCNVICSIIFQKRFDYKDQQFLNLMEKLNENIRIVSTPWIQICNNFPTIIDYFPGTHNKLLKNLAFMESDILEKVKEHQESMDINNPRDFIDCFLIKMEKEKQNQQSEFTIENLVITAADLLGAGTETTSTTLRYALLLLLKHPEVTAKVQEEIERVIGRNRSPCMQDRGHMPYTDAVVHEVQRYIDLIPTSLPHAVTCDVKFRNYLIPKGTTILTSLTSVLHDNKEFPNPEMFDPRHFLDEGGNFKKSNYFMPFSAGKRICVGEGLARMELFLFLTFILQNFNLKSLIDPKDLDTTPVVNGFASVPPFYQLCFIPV

In the case of `CC(C)(N)C(=O)[O-].O.O=[N+]([O-])[O-].[Cu+2].c1cnc2c(c1)ccc1cccnc12` [Cu(II) complex, [Cu(phen)(C-dmg)(H2O)]NO3], the IC50 (CYP 2C19) is reported as 10.3 µM, the IC50 (CYP 2C8) is reported as 10.3 µM and the IC50 (CYP 2B6) is reported as 7.59 µM.
